Experimental findings from US12503455B2, “Nucleic acid-binding photoprobes and uses thereof” (Arrakis Therapeutics, Inc., priority 2017, dated 2025) are described below.

Assay type in all cases: binding
Test [1] relates to Aptamer 21 spiked into polyA+ RNA extract. Description: Capture of Aptamer 21 from PolyA+ RNA extract. The following applies: versus warhead-only control ARK-2059. On the procedure:
Total RNA was extracted from a pellet of 5×10^6 HepG2 cells using the ReliaPrep mini-prep kit (Promega) according to the manufacturer's standard protocol. The polyA+ RNA fraction was isolated from 50 μL sample of total RNA at 454 ng/μL using the magnetic mRNA isolation kit (New England Biolabs, cat #S1550) according to the manufacturer's standard protocol using 450 μL of lysis buffer and 100 μL of beads.
A sample of folded aptamer 21 RNA was spiked into a sample of polyA+ RNA extract at a final concentration of 1 nM aptamer 21 and 3 ng/μL polyA+ RNA. […]
Sequencing was performed on a single Illumina HiSeq 4000 lane with 150 bp paired-end reads using the standard manufacturer protocol.
Stitched reads were then processed with Cutadapt (http://dx.doi.org/10.14806/ej.17.1.200) with at least 5-nts of overlap and a maximum of 20% mismatches to simultaneously 1) define a unique 6-nt unique molecular identifier (UMI) in the correct adapter context (ATATAGGN6AGATCGG) (SEQ. […] UMIs were appended to read names, and reads were mapped the against the genome and transcriptome references (plus Aptamer 21) using the STAR aligner (http://dx.doi.org/10.1093/bioinformatics/bts635) with at most 10% mismatches. Groups of reads with identical or near-identical UMIs were then collapsed using the Directional Adjacency methods of UMI-tools (http://dx.doi.org/10.1101/gr.209601.116) with default parameters. […]

Test [2] deals with Aptamer 21. Description: Capture of Aptamer 21 with click-biotinylated probes. To be noted: Aptamer 21 or Aptamer 21-E. On the procedure:
A 50 μL sample of 1 μM folded Aptamer 21 or Aptamer 21-E solution in folding buffer (20 mM TrisHCl pH 8, 100 mM KCl, 3 mM MgCl2) was added to a 0.5 μL aliquot of 0.5 mM ARK-729, ARK-2058, ARK-816, or ARK-2059 in DMSO or a DMSO-only control. The solution was incubated at 37° C. for 1 h and then irradiated with long wave UV light (˜365 nm) for 30 min in a UV crosslinker (Fisher Scientific). To this solution was added 0.5 μL of 10 mM DBCO-biotin (Click Chemistry Tools, cat. #A105) and 2 μL of 0.5 M EDTA pH 8 and then the solution was incubated at 65° C. for 2 h. The RNA was ethanol precipitated by adding 35 μL of water, 2 uL of 5 mg/mL glycogen, 10 μL 3 M NaOAc pH 5, and 250 μL ethanol, incubating at −80° C. for 1 h, centrifuging at 20000×g for 30 min, washing the pellet twice with 500 μL of 70% ethanol, and then air drying the pellet.
The RNA pellet was redissolved in 50 μL of 1× bind/wash buffer (20 mM TrisHCl pH 7, 100 mM KCl, 0.1% Tween-20). A 50 μL aliquot of MyOne Streptavidin C1 Dynabead slurry (Thermo) was captured on a magnet, washed twice with 50 μL of 1× bind/wash buffer, and then resuspended in 50 μL of the crosslinked RNA sample. The bead suspension was rotated at room temperature for 30 min and then washed twice with 100 μL of 1× bind/wash solution. […]

The test system of test [3] is Aptamer 21. Briefly: Reverse transcriptase pausing (drop-off) gel assay of photo-crosslinking to Aptamer 21. To be noted: 1 uM RNA, 10 uM probe (9 uM PreQ1 probe), UV ~360 nm. As to the method:
(§1) A solution of RNA at 2 to 5 μM in nuclease-free water was heated to 95° C. for 3 min and then cooled on ice for 2 min. This solution was diluted with ½ volume of 3×RNA folding buffer (60 mM TrisHCl pH 8, 300 mM KCl, 9 mM MgCl2) and incubated at 37° C. for 20 min. Folding was carried out immediately before use of the RNA in each experiment. In cases where a mixture of RNA molecules was used in vitro the RNAs were folded separately and then combined prior to the probing experiment.
Folded RNA (1 μM) was incubated with the photoaffinity probe (10 μM) in total 25 μL of buffer (20 mM TrisHCl pH 8, 100 mM KCl, 3 mM MgCl2) with 2.5% DMSO for 30 min at 37° C. to allow binding to come to equilibrium. The sample was then irradiated with long wave UV light (˜365 nm) for 30 min in a UV crosslinker (Fisher Scientific).
(§2) A 3.75 μL aliquot of 10 μM reverse transcription primer was added to the cross-linked RNA sample, which was then incubated for 5 min at 65° C. and then cooled on ice. The sample was then diluted to a final volume of 60 μL and final buffer concentration of 1× Protoscript-II buffer (New England Biolabs), 0.5 mM dNTPs, 10 mM DTT, 0.4 U/μL RNase Inhibitor (New England Biolabs), and 10 U/μL Protoscript-II (New England Biolabs). The reaction was incubated at 45° C. for 2 h, 65° C. for 20 min, and then 4° C.
The RNA was hydrolyzed by the addition of 4.8 μL of 2.5 M NaOH and heating at 95° C. for 5 min. The reaction was quenched by the addition of 0.9 μL of acetic acid. The cDNA was precipitated by the addition of 6.6 μL of 3 M sodium acetate pH 5 and 181 μL ethanol, cooling to −80° C. for 1 h, and then centrifuging at 20,500×g at 4° C. for 30 min. The cDNA pellet was washed twice with 500 μL of 70% ethanol and then air dried for 5 min.
The cDNA pellet was resuspended in 12 μL of 1×TBE-urea sample loading buffer (Bio-Rad) and heated to 95° C. for 5 min. The sample was then run on a pre-cast 8.6×6.7 cm TBE-urea 10% PAGE gel (Bio-Rad) at 120 V until the lower bromophenol blue dye reached the bottom of the gel. The gel was stained with 1×SYBR-gold (Invitrogen) in 1×TBE buffer at room temperature for 20 min covered from light. The gel fluorescence was imaged on an Azure c600 instrument.

A further test relates to PreQ1 RNA. Description: Reverse transcriptase pausing gel assay of photo-crosslinking to PreQ1 RNA. To be noted: 1 uM RNA, 9 uM PreQ1 probe, UV ~360 nm. On the procedure: as §1
[…] The sample was then irradiated with long wave UV light (˜365 nm) for 30 min in a UV crosslinker (Fisher Scientific).
as §2
The RNA was hydrolyzed by the addition of 4.8 μL of 2.5 M NaOH and heating at 95° C. for 5 min. […]
The cDNA pellet was resuspended in 12 μL of 1×TBE-urea sample loading buffer (Bio-Rad) and heated to 95° C. for 5 min. […] The gel fluorescence was imaged on an Azure c600 instrument.

`COC(=O)C1=C(COCc2cn(CCOCCOCCC(=O)NCCC3(CCN=[N+]=[N-])N=N3)nn2)NC(c2ccncc2)=NC1c1ccc(F)cc1Cl` (centres unmarked) [ARK-816]: the “enrichment analysis of Aptamer 21 from PolyA+ RNA extract” value in test [1] (avidin capture, next-generation sequencing) was “Enrichment of the sites of probe-specific RT pausing on Aptamer 21 was observed”. Besides, the “RT pausing ratio peaks on Aptamer 21 spiked into PolyA+ RNA extract” value in test [1] (extract from HepG2 cells) is reported as “observed at the same positions as for isolated Aptamer 21”. Besides, the “RT pausing peaks after click-biotinylation and avidin bead enrichment” value in the test with Aptamer 21 [2] was “RT pausing peaks specific to Aptamer 21”.

Take `CC1(CCC(=O)NCCOCCOCCNCc2c[nH]c3nc(N)[nH]c(=O)c23)N=N1` [I-23]: the “cross-linking with Apt21 RNA (RT pausing)” value in the test with Aptamer 21 [3] is listed as “does not show cross-linking”. The “cross-linking to PreQ1 RNA (RT pausing)” value in the test on PreQ1 RNA is recorded as “does not show cross-linking”.
